Structures can show the parent of a compound that is named as a salt.
Columns and labels:
[1] = biological target: T1, human Adenosine A2a receptor (Homo sapiens, UniProt P29274); test: Adenosine receptor TR-FRET binding assay (CA200645 displacement), A2a; details: 100 nM CA200645, CHO cell membranes, 2 hours at room temperature
T1 construct: expressed in transfected cells; host or cells: CHO cell membranes

[2] = biological target: T2, human Adenosine A3 receptor (Homo sapiens, UniProt P0DMS8); test: Adenosine receptor TR-FRET binding assay (CA200645 displacement), A3
T2 sequence (P0DMS8 1-318): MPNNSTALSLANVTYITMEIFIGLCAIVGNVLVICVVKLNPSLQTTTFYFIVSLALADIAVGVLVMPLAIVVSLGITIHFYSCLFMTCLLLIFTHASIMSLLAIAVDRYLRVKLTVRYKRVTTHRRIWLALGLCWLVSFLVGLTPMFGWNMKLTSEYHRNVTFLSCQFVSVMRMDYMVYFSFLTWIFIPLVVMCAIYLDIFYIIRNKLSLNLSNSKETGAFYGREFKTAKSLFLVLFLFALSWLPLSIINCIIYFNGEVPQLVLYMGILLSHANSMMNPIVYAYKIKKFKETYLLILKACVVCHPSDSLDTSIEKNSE

human PBMCs = test: CD3/CD28 stimulated IL-2 release NECA reversal assay in human PBMCs; assay type: cell-based; details: PBMC, CD3/CD28 antibody stimulated, 1 uM NECA, 24 hours, IL-2 in culture supernatant;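 further: dose-response as % inhibition where 100% equals no-NECA control wells with CD3/CD28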
Procedure: Blood is drawn from healthy volunteers using sodium citrate as the anticoagulant (0.3% final concentration). After centrifugation of the blood over Histopaque-1077, PBMCs are collected from the Histopaque/plasma interface and washed twice in PBS (300 g for 10 mins at room temp). Cells are plated at 50,000 cells/well in 150 μl RPMI/10% FCS in 96-well cell culture plates that have been precoated with 1 ug/ml CD3 antibody. 50 μl diluted compound mix is added to the cells, to obtain final concentrations of 1 ug/ml CD28 antibody, 1 uM NECA and 0.003-10 μM adenosine receptor antagonist. Assay plates are incubated for 24 hours at 37° C. in a humidified incubator. Culture supernatant is tested for IL-2 levels using the human IL-2 Tissue Culture Kit (Meso Scale Discovery).

[3] = biological target: T3, human Adenosine A1 receptor (Homo sapiens, UniProt P30542); test: Adenosine receptor TR-FRET binding assay (CA200645 displacement), A1
T3 sequence (P30542 1-326): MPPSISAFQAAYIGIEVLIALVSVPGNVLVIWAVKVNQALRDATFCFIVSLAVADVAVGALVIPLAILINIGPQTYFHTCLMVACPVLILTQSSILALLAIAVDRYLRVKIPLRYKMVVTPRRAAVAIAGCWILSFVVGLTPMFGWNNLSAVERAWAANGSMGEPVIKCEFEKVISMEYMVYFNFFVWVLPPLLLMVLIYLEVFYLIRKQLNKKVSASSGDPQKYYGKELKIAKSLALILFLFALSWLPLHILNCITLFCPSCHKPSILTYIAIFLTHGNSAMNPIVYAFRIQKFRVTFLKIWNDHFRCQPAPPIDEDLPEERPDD

[4] = biological target: T4, human Adenosine A2b receptor (Homo sapiens, UniProt P29275); test: Adenosine receptor TR-FRET binding assay (CA200645 displacement), A2b; details: 30 nM CA200645, CHO cell membranes, 2 hours at room temperature
T4 construct: expressed in transfected cells; host or cells: CHO cell membranes
T4 sequence (P29275 1-332): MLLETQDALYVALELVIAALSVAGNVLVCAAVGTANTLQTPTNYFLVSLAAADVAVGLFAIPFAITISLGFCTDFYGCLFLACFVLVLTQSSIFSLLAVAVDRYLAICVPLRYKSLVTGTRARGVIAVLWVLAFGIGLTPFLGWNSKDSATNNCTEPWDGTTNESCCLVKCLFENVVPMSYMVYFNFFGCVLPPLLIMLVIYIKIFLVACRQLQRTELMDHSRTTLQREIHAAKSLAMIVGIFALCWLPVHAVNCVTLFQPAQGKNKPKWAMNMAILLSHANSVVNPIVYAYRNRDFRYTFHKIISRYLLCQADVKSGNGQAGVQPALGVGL

T1 sequence (P29274 whole entry): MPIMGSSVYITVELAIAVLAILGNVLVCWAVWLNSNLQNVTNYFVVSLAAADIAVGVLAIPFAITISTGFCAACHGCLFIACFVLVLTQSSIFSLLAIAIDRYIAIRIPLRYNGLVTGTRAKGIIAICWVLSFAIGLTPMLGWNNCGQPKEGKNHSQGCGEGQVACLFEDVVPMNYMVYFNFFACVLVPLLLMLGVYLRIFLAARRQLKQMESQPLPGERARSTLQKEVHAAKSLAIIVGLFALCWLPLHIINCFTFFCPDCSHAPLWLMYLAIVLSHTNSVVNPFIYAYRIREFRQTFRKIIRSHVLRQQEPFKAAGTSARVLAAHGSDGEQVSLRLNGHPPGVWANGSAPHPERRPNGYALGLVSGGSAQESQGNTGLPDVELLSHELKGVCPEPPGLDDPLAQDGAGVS

SMILES	Ki [1] [µM]	Ki [2] [µM]	IC50 (human PBMCs) [µM]	Ki [3] [µM]	Ki [4] [µM]
Cc1cccnc1CN1CCN(c2ccn3nc(-c4ccco4)c(C#N)c3n2)CC1 [Example 51, 2-(2-Furyl)-5-[4-[(3-methyl-2-pyridyl)methyl]piperazin-1-yl]pyrazolo[1,5-a]pyrimidine-3-carbonitrile]	0.0241	2.12	0.073	0.125	2.55
Cc1cc(-c2c(-c3cccc(C#N)c3)nn3ccc(C(=O)NC4COC4)nc23)cc(Cl)n1 [Example 5.5]	0.0017	> 1	0.021	0.2	0.055
N#Cc1c(-c2ccco2)nn2ccc(NCc3ccccc3)nc12 [Example 45, 5-(Benzylamino)-2-(2-furyl)pyrazolo[1,5-a]pyrimidine-3-carbonitrile]	0.0005	–	0.107	0.006	0.074
N#Cc1c(-c2cccc(F)c2)nn2ccc(NCc3ccccc3)nc12 [Example 70, 5-(Benzylamino)-2-(3-fluorophenyl)pyrazolo[1,5-a]pyrimidine-3-carbonitrile]	0.0022	–	0.177	0.002	0.181
N#Cc1c(-c2ccccc2F)nn2ccc(NCc3ccccc3)nc12 [Example 35, 5-(Benzylamino)-2-(2-fluorophenyl)pyrazolo[1,5-a]pyrimidine-3-carbonitrile]	0.0045	–	0.408	0.004	0.122
c1ccc(CNc2ccn3nc(-c4ccco4)cc3n2)cc1 [Example 48, N-Benzyl-2-(2-furyl)pyrazolo[1,5-a]pyrimidin-5-amine]	0.0166	0.041	1.89	0.137	1.17
Fc1cccc(-c2cc3nc(NCc4ccccc4)ccn3n2)c1 [Example 66, N-benzyl-2-(3-fluorophenyl)pyrazolo[1,5-a]pyrimidin-5-amine]	0.0447	> 1	0.869	0.059	0.384
Cn1cc(-c2c(-c3ccco3)nn3ccc(NCc4ccccc4)nc23)cn1 [Example 53, N-benzyl-2-(2-furyl)-3-(1-methylpyrazol-4-yl)pyrazolo[1,5-a]pyrimidin-5-amine]	0.0277	0.618	0.128	0.214	–
Cc1ccc(-c2nn3ccc(NCc4ccccc4)nc3c2C#N)o1 [Example 64, 5-(benzylamino)-2-(5-methyl-2-furyl)pyrazolo[1,5-a]pyrimidine-3-carbonitrile]	0.0075	0.041	0.146	0.016	0.508
N#Cc1c(-c2ccco2)nn2ccc(N3CCN(Cc4c(F)cc(F)cc4F)CC3)nc12 [Example 51.1, 2-(2-Furyl)-5-[4-[(2,4,6-trifluorophenyl)methyl]piperazin-1-yl]pyrazolo [1,5-a]pyrimidine-3-carbonitrile]	0.0265	> 1	0.016	0.322	1.42
N#Cc1cccc(-c2nn3ccc(NCc4ccccc4)nc3c2C#N)c1 [Example 58, 5-(Benzylamino)-2-(3-cyanophenyl)pyrazolo[1,5-a]pyrimidine-3-carbonitrile]	0.002	> 1	0.118	0.083	–
N#Cc1c(-c2cccc(F)c2)nn2ccc(N)nc12 [Example 72, 5-Amino-2-(3-fluorophenyl)pyrazolo[1,5-a]pyrimidine-3-carbonitrile]	0.0309	0.092	0.565	0.0003	0.116
NC(=O)c1c(-c2ccco2)nn2ccc(NCc3ccccc3)nc12 [Example 46, 5-(Benzylamino)-2-(2-furyl)pyrazolo[1,5-a]pyrimidine-3-carboxamide]	0.0027	1.27	0.06	0.146	0.257
N#Cc1cccc(-c2nn3ccc(N4CCN(CCF)CC4)nc3c2C#N)c1 [Example 87, 2-(3-Cyanophenyl)-5-[4-(2-fluoroethyl)piperazin-1-yl]pyrazolo[1,5-a]pyrimidine-3-carbonitrile]	0.0236	> 1	0.057	2.28	–
Cc1cc(-c2c(-c3cccc(C#N)c3)nn3ccc(NC4CCN(CCO)CC4)nc23)cc(Cl)n1 [Example 2.39]	0.0014	> 1	–	0.241	0.002
Cc1cc(-c2c(-c3cccc(C#N)c3)nn3ccc(NC(=O)NCC(C)(C)N)nc23)cc(Cl)n1 [Example 31.4, 1-(2-Amino-2-methyl-propyl)-3-[3-(2-chloro-6-methyl-4-pyridyl)-2-(3-cyanophenyl)pyrazolo[1,5-a]pyrimidin-5-yl]urea trifluoroacetate]	0.0098	> 1	–	0.112	0.013
Cc1cc(-c2c(-c3cccc(C#N)c3)nn3ccc(NC(=O)N4CCC(C)(C#N)CC4)nc23)cc(C)n1 [Example 30.5, 4-Cyano-N-[2-(3-cyanophenyl)-3-(2,6-dimethyl-4-pyridyl)pyrazolo[1,5-a]pyrimidin-5-yl]-4-methyl-piperidine-1-carboxamide]	0.0084	> 1	–	0.262	0.028
Cc1cc(-c2c(-c3cccc(C#N)c3)nn3ccc(NC(=O)NCCN)nc23)cc(Cl)n1 [Example 31.2, 1-(2-Aminoethyl)-3-[3-(2-chloro-6-methyl-4-pyridyl)-2-(3-cyanophenyl)pyrazolo[1,5-a]pyrimidin-5-yl]urea trifluoroacetate]	0.0046	> 1	–	0.238	0.006
Cc1cc(-c2c(-c3cccc(C#N)c3)nn3ccc(NC4CCN(C)CC4)nc23)cc(Cl)n1 [Example 2.42]	0.0005	> 1	–	0.149	0.004
Cc1cc(-c2c(-c3cccc(C#N)c3)nn3ccc(NCCN4CCOCC4)nc23)cc(Cl)n1 [Example 2.19]	0.0028	> 1	–	0.032	0.021
Cc1cc(-c2c(-c3cccc(C#N)c3)nn3ccc(N[C@@H]4CCNC4)nc23)cc(Cl)n1 [Example 4.3]	0.0012	> 1	–	0.008	0.003
Cc1cc(-c2c(-c3cccc(C#N)c3)nn3ccc(C(=O)NC45CC(N)(C4)C5)nc23)cc(Cl)n1 [Example 7.1, N-(3-Amino-1-bicyclo[1.1.1]pentanyl)-3-(2-chloro-6-methyl-4-pyridyl)-2-(3-cyanophenyl)pyrazolo[1,5-a]pyrimidine-5-carboxamide]	0.002	> 1	–	0.245	0.017
Cc1cc(-c2c(-c3cccc(C#N)c3)nn3ccc(N4CC(C(=O)O)C4)nc23)cc(Cl)n1 [Example 2.35]	0.0233	2.53	–	0.305	0.259
Cc1cc(-c2c(-c3cccc(C#N)c3)nn3ccc(NC45CC(C(=O)O)(C4)C5)nc23)cc(Cl)n1 [Example 2.38]	0.0453	> 1	–	0.837	0.346
Cc1cc(-c2c(-c3cccc(C#N)c3)nn3ccc(C(=O)N[C@@H]4CN(C)C[C@H]4O)nc23)cc(C)n1 [Example 92.32]	0.0029	> 1	–	0.459	0.024
